In patent US9062037B2, “Tazarotene derivatives” (Stiefel Laboratories, Inc., priority 2009, dated 2015):

Columns and labels:
[1] = test system: SkinEthic RHE cultures; experiment: H and E staining and immunohistochemistry for K10, K19 and filaggrin in SkinEthic RHE cultures; format: cell-based, human; conditions: 6 μl test article, 72 hours
Procedure: (§1) SkinEthic RHE cultures were transferred into 6-well plates containing 1.0 mL/well growth media. The cultures were equilibrated at 37° C. and the media was changed daily. The cultures were subsequently placed in 60 mm petri dishes containing 3.5 mL growth media. 6 μl aliquots of the Test Articles shown in Table 3 were applied to duplicate cultures. The cultures were incubated at 37° C. for 72 hours. At the end of the incubation period, the growth media was collected and stored at −20° C. The tissues were cut in half and one half was placed in 10% NBF for histology, while the other half was placed in RNAlater™ solution (Ambion). The following analyses were performed: a) IL-1α and IL-8 activity assay; b) Hand E staining; c) Immunohistochemistry for K10, K19 and filaggrin; and d) qRT-PCR to quantitate K10, K19 and filaggrin expression.

[2] = Metabolism in the presence of human skin microsomes; conditions: for Half-life / k constant: HSkM
Procedure: (§2) Hepatic microsomal reactions were carried out in microcentrifuge tubes in the following manner. Human liver microsomes (0.5 or 1.0 mg/ml protein), Test Article (1 or 10 μM), paraoxon (0, 10 or 100 μM), NADPH regenerating system (10 mM glucose-6-phosphate, 1 unit/ml glucose-6-phosphate dehydrogenase, 1 mM NADP^+), magnesium chloride (5 mM) in 0.1 M potassium phosphate buffer, pH 7.4 were incubated at 37° C. in a shaking water bath. Reactions were initiated with the addition of substrate with the exception of the zero-time incubations. The total reaction volume was 0.2 ml. The reactions were incubated for 15, 30, 45 or 60 minutes, terminated with 0.2 ml ice-cold acetonitrile and then placed on ice. For zero-time incubations, ice cold acetonitrile was added to the mixture containing microsomes, along with NADPH regenerating system, magnesium chloride in phosphate buffer and the Test Article. Each time point was carried out in triplicate.
(§3) Five time points were chosen, but because of the limitation of human skin microsome supply, each one was carried out in duplicate. Skin microsomal reactions were carried out as described above for hepatic microsomal reactions with the following two exceptions. Firstly, the total reaction volume was 0.1 mL. Secondly, incubations were terminated with 0.1 mL acetonitrile.

[3] = in vitro; conditions: human, human skin microsomes, pH 7.4
Procedure: as §2, §3

[4] = test system: A431 cells; experiment: PMA-induced IL-6 release from A431 cultures; format: cell-based, human; conditions: PMA 10 ng/mL; retinoids 0.01 to 1 μg/mL; 48 hours
Procedure: A431 cells were purchased from ATCC(CRL-1555). Cells were seeded onto 12-well plates at a density of 250,000 cells/well and incubated for 72 hours at 37° C./5% CO2 to allow cells to grow to confluency. Phorbol-12-myristate 13-acetate (PMA), diluted in DMSO (10 mg/mL stock), was added in a concentration of 10 ng/mL and retinoids were added in concentrations of 0.01 to 1 μg/mL from a 10 mg/mL stock solution in DMSO. Cultures were incubated for 48 hours at 37° C. At the end of the incubation period, growth media was collected and cell viability was determined using a CellTiterGlo assay kit (Promega). Concentrations of IL-6 were determined by ELISA and normalized based on cell viability.
It is known that PMA up regulates IL-6 expression through transactivation of the nuclear transcription factor, AP-1. Retinoids, such as tretinoin, are known to inhibit transactivation of AP-1 via retinoic acid receptors.

[5] = Reaction with benzoyl peroxide (BPO) in solution; format: physicochemical; conditions: at all three temperatures (35° C., room temperature, 5° C.); BPO 50-fold excess by weight
Procedure: The reaction of (i) tazarotene, tazarotene benzoate, hydroxy tazarotenic acid and tazarotene nicotinate with (ii) benzoyl peroxide (BPO) in 30% aqueous solutions was monitored at 35° C., room temperature and 5° C.
Individual solutions of each compound were prepared at approximately 0.25 mg/mL in acetonitrile:water (6:4 by volume). Reactions were initiated by mixing equal volumes of the test solution with an approximately 12 mg/mL solution of benzoyl peroxide (BPO) in acetonitrile:water (4:1 by volume). Therefore, the reaction solution contained approximately 0.125 mg/mL of the test compound and the BPO was at a 50-fold excess by weight (i.e. at the same ratio as a product containing 0.1% tazarotene and 5% BPO). Aliquots of the reaction solutions were stored at various temperatures protected from light.
Reactions were quenched by diluting 30 μL of the reaction solution to 50 mL with a diluent (acetonitrile:water in a ratio of 1:1 by volume) and storing the sample at 10° C. in the LC/MS sample tray or at 5° C. for storage. Duplicate samples were prepared at each time point (three at the start of the reaction) and the results were averaged together to generate a single value.
Samples were analyzed on a Waters Acquity UPLC with a Waters Xevo TQMS using an ESI source in the positive mode controlled by MassLynx V4.1 software. […]

[6] = test system: SkinEthic RHE cultures; experiment: qRT-PCR of K10, K19 and filaggrin expression in SkinEthic RHE cultures; format: cell-based, human; conditions: 6 μl test article, 72 hours
Procedure: as §1

[7] = test system: SkinEthic RHE cultures; experiment: IL-1α and IL-8 activity assay in SkinEthic RHE cultures; format: cell-based, human; conditions: 6 μl test article, 72 hours
Procedure: as §1

| SMILES | filaggrin by immunohistochemistry [1] | rate of metabolism by human skin microsomes relative to human liver microsomes [2] | Half-life ([2]; 1 μM, Complete) [h] | k constant ([2]; 1 μM, Complete) | Half-life ([2]; 1 μM, Without NADPH) [h] | k constant ([2]; 1 μM, Without NADPH) | k constant ([2]; 10 μM, Complete) | Half-life ([2]; 10 μM, without NADPH) [h] | k constant ([2]; 10 μM, without NADPH) | metabolized ([2]; after 150 min, 2 mg/ml human skin microsomes) [%] | half-life at 10 µM [3] [h] | PMA-induced IL-6 release [4] | less reactive with BPO than tazarotene and hydroxy tazarotenic acid [5] [times] | down regulation of K10 gene expression compared to untreated and vehicle controls [6] | down regulation of filaggrin gene expression compared to untreated and vehicle controls [6] | IL-1α activity compared to untreated and vehicle controls [7] |
| --- | --- | --- | --- | --- | --- | --- | --- | --- | --- | --- | --- | --- | --- | --- | --- | --- |
| CCOC(=O)c1ccc(C#Cc2ccc3c(c2)C(C)(C)CC(OC(=O)c2ccccc2)S3)nc1 (centres unmarked) [Compound 4, 6-(2-(2-benzoyloxy-4,4-dimethylthiochroman-6-yl)ethynyl)nicotinic acid, ethyl ester] | down regulated | slower rate | 8.25 | −0.0014 | 3.62 | −0.0032 | −0.0017 | 7.7 | −0.0015 | 20 | 6.8 | significantly decreased | ~25 | uninterpretable | equivocal | only slightly increased |
| CCOC(=O)c1ccc(C#Cc2ccc3c(c2)C(C)(C)CCS3)nc1 [Tazarotene, ethyl 6-[2-(4,4-dimethylthiochroman-6-yl)-ethynyl nicotinate] | – | – | – | – | – | – | – | – | – | – | – | – | – | – | – | only slightly increased |
